Measured values taken from ChEMBL document CHEMBL1155256, “A new small molecule that directly inhibits the DNA binding of NF-kappaB” (Bioorg Med Chem, 2009).

Biological target: T1, Nuclear factor NF-kappa-B p105 subunit (Homo sapiens, UniProt P19838)
T1 sequence (P19838 whole entry): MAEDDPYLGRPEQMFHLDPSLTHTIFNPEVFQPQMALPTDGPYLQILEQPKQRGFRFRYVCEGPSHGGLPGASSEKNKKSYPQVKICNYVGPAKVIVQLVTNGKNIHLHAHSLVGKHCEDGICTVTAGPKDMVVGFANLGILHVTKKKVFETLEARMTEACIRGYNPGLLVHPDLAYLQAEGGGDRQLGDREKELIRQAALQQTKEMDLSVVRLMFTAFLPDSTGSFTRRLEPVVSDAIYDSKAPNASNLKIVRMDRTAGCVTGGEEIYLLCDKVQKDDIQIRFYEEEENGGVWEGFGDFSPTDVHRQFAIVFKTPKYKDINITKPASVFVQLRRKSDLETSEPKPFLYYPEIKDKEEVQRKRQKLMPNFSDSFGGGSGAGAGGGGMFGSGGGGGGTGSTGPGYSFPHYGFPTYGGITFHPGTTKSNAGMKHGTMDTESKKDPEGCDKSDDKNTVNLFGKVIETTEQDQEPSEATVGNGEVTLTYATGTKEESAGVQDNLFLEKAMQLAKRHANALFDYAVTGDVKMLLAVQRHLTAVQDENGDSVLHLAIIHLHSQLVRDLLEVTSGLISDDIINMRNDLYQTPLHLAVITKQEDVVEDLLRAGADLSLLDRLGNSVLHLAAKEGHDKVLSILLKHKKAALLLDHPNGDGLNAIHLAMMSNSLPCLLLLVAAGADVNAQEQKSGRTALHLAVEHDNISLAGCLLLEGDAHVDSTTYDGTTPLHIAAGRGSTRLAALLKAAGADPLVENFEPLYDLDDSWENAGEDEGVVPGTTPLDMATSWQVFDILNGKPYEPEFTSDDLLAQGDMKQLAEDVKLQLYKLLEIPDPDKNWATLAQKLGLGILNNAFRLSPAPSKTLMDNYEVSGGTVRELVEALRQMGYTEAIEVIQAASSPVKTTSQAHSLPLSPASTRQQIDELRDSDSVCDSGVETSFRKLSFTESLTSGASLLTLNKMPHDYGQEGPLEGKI
Assay: Inhibition of GST-fused human NF-kappaB p50 subunit DNA binding activity assessed as shortened diffusion time by fluorescence correlation spectroscopy

Row | IC50 [µM] | Structure (SMILES)
1 | 19 | Cc1cccc(Nc2nc(Cl)nc(Cl)n2)c1
2 | > 300 | O=[N+]([O-])c1ccc(Nc2nc(Cl)nc(Cl)n2)cc1

Second part, the compound before the results:

Row | Structure (SMILES) | IC50 [µM]
3 | Clc1ccc(Nc2nc(Cl)nc(Cl)n2)cc1 | 110
4 | CC(C)c1ccc(Nc2nc(Cl)nc(Cl)n2)cc1 | 74.4
5 | Clc1nc(Cl)nc(Nc2ccccc2)n1 | 28.6
6 | O=[N+]([O-])c1cccc(Nc2nc(Cl)nc(Cl)n2)c1 | 119
